Results taken from patent US9695155B2, “Herbicidal substituted pyrimidinyloxy benzene compounds” (E. I. DU PONT DE NEMOURS AND COMPANY, priority 2013, dated 2017).

Assays:
arrowleaf sida = experiment: Test E postemergence; assay type: in vivo, Sida rhombifolia
Text: (§1) Seeds of plant species selected from corn (Zea mays), soybean (Glycine max), velvetleaf (Abutilon theophrasti), lambsquarters (Chenopodium album), wild poinsettia (Euphorbia heterophylla), palmer pigweed (Amaranthus palmeri), waterhemp (common waterhemp, Amaranthus rudis), surinam grass (Brachiaria decumbens), large (Lg) crabgrass (Digitaria sanguinalis), Brazilian crabgrass (Digitaria horizontalis), fall panicum (Panicum dichotomiflorum), giant foxtail (Setaria faberii), green foxtail (Setaria viridis), goosegrass (Eleusine indica), johnsongrass (Sorghum halepense), ragweed (common ragweed, Ambrosia elatior), barnyardgrass (Echinochloa crus-galli), sandbur (southern sandbur, Cenchrus echinatus), arrowleaf sida (Sida rhombifolia), Italian ryegrass (Lolium multiflorum), dayflower (Virginia (VA) dayflower, Commelina virginica), field bindweed (Convolvulus arvensis), morningglory (Ipomoea coccinea), nightshade (eastern black nightshade, Solanum ptycanthum), kochia (Kochia scoparia), yellow nutsedge (Cyperus esculentus), cocklebur (common cocklebur, Xanthium strumarium), smartweed (ladysthumb smartweed, and hairy beggarticks (Bidens pilosa), were planted into a silt loam soil and treated preemergence with test chemicals formulated in a non-phytotoxic solvent mixture which included a surfactant.
(§2) At the same time, plants from these crop and weed species and also horseweed (Canada horseweed, Conyza canadensis), waterhemp_RES1, (ALS & Triazine resistant common waterhemp, Amaranthus rudis), and waterhemp_RES2, (ALS & HPPD resistant common waterhemp, Amaranthus rudis) were planted in pots containing Redi-Earth® planting medium (Scotts Company, 14111 Scottslawn Road, Marysville, Ohio 43041) comprising spaghnum peat moss, vermiculite, wetting agent and starter nutrients were treated with postemergence applications of test chemicals formulated in the same manner. Plants ranged in height from 2 to 18 cm for postemergence treatments (1- to 4-leaf stage). Treated plants and controls were maintained in a greenhouse for 14 to 21 days, after which time all species were compared to controls and visually evaluated. Plant response ratings, summarized in Table E, are based on a scale of 0 to 100 where 0 is no effect and 100 is complete control. A dash (-) response means no test result.

Italian ryegrass = experiment: Test E postemergence; assay type: in vivo, Lolium multiflorum
Text: as §1, §2

cocklebur = experiment: Test E preemergence; assay type: in vivo, Xanthium strumarium; settings: for Cocklebur plant response rating: scale 0 to 100 (0 no effect, 100 complete control); for Plant response rating, Cocklebur: scale 0 to 100, 0 no effect, 100 complete control
Text: as §1, §2

[1] = Postemergence, 31 g ai/ha, scale 0 to 100
[2] = Postemergence, 62 g ai/ha, scale 0 to 100
[3] = Postemergence, 125 g ai/ha, scale 0 to 100
[4] = postemergence, 8 g ai/ha, scale 0 to 100, 0 no effect, 100 complete control
[5] = postemergence, 16 g ai/ha, scale 0 to 100, 0 no effect, 100 complete control

Which results are given for `Fc1cnc(Oc2ccccc2-n2cc(Br)cn2)nc1` [Compound 10, 2-[2-(4-bromo-1H-pyrazol-1-yl)phenoxy]-5-fluoropyrimidine]?
pest or weed control at 31 g/ha (arrowleaf sida; Sida rhombifolia, post-emergence, Postemergence, 31 g ai/ha, scale 0 to 100, read-out: Plant response rating, Arrowleaf Sida): 50%; pest or weed control at 62 g/ha (arrowleaf sida; Sida rhombifolia, post-emergence, Postemergence, 62 g ai/ha, scale 0 to 100, read-out: Plant response rating, Arrowleaf Sida): 70%; pest or weed control at 125 g/ha (arrowleaf sida; Sida rhombifolia, post-emergence, Postemergence, 125 g ai/ha, scale 0 to 100, read-out: Plant response rating, Arrowleaf Sida): 80%; pest or weed control at 250 g/ha (arrowleaf sida; Sida rhombifolia, post-emergence, Postemergence, 250 g ai/ha, scale 0 to 100, read-out: Plant response rating, Arrowleaf Sida): 85%; pest or weed control at 16 g/ha (arrowleaf sida; Sida rhombifolia, post-emergence, postemergence, 16 g ai/ha, scale 0 to 100, 0 no effect, 100 complete control, read-out: Plant response rating, Arrowleaf Sida): 40%; pest or weed control at 31 g/ha (Italian ryegrass; Lolium multiflorum, post-emergence, Postemergence, 31 g ai/ha, scale 0 to 100, read-out: Plant response rating, Ryegrass, Italian): 0%; pest or weed control at 62 g/ha (Italian ryegrass; Lolium multiflorum, post-emergence, Postemergence, 62 g ai/ha, scale 0 to 100, read-out: Plant response rating, Ryegrass, Italian): 0%; pest or weed control at 125 g/ha (Italian ryegrass; Lolium multiflorum, post-emergence, Postemergence, 125 g ai/ha, scale 0 to 100, read-out: Plant response rating, Ryegrass, Italian): 0%; pest or weed control at 250 g/ha (Italian ryegrass; Lolium multiflorum, post-emergence, Postemergence, 250 g ai/ha, scale 0 to 100, read-out: Plant response rating, Ryegrass, Italian): 0%; pest or weed control at 16 g/ha (Italian ryegrass; Lolium multiflorum, post-emergence, postemergence, 16 g ai/ha, scale 0 to 100, 0 no effect, 100 complete control, read-out: Plant response rating, Ryegrass, Italian): 0%

With `Clc1cnc(Oc2cccc(Br)c2-n2cc(Br)cn2)nc1` [Compound 65] as the compound, how does the “Plant response rating, Arrowleaf Sida” value (arrowleaf sida; [1]) read?
The value was 60.

And the “Plant response rating, Arrowleaf Sida” value (arrowleaf sida; [2])?
The value was 80.

And the “Plant response rating, Arrowleaf Sida” value (arrowleaf sida; [3])?
Its value is 80.

What about the “Plant response rating, Arrowleaf Sida” value (arrowleaf sida; [4]) of the same compound?
Its value is 55.

And the “Plant response rating, Arrowleaf Sida” value (arrowleaf sida; [5])?
The value was 50.

What about the “Plant response rating, Ryegrass, Italian” value (Italian ryegrass; [1]) of the same compound?
Its value is 0.

And the “Plant response rating, Ryegrass, Italian” value (Italian ryegrass; [2])?
Its value is 0.

And the “Plant response rating, Ryegrass, Italian” value (Italian ryegrass; [3])?
The value was 0.

And the “Plant response rating, Ryegrass, Italian” value (Italian ryegrass; [4])?
Its value is 0.

What about the “Plant response rating, Ryegrass, Italian” value (Italian ryegrass; [5]) of the same compound?
The value was 0.

What does the source list for `N#Cc1cccc(Oc2ncc(F)cn2)c1-n1cc(Cl)cn1` [Compound 73]?
Cocklebur plant response rating (cocklebur; 16 g ai/ha): 0; Cocklebur plant response rating (cocklebur; 31 g ai/ha): 0; Plant response rating, Cocklebur (cocklebur; 250 g ai/ha): 25

What does the source list for `FC(F)(F)c1cnn(-c2c(Cl)cccc2Oc2ncc(Cl)cn2)c1` [Compound 167]?
Cocklebur plant response rating (cocklebur; 16 g ai/ha): 0; Cocklebur plant response rating (cocklebur; 31 g ai/ha): 0; Cocklebur plant response rating (cocklebur; 62 g ai/ha): 100; Plant response rating, Cocklebur (cocklebur; 125 g ai/ha): 90
